The text below walks through data of US7851510B2, “Gossypol derivatives, production method thereof and uses of same” (Centre National de la Recherche Scientifique (C.N.R.S.), priority 2004, dated 2010).

Like-named read-outs stand apart in the source and are kept apart here.

Assay in all cases: Protein kinase activity in the presence of compound
Holding throughout (type): biochemical

One assay concerns the target PKCa (Homo sapiens, UniProt P17252). The settings on record: read-out: Residual activity PKCa. As for the experimental part:
(§1) The action of the compound of formula (14) was tested on a selection of 29 different protein kinases. The activity of these enzymes was measured in the presence of 10 μM of compound, according to the general methodology described by Bain et al. (2003) Biochem. J. 371:199-204 and Davies et al. (2000) Biochem. J. 351:95-105.
(§2) Residual enzyme activity of protein kinases in the presence of inhibitor compounds at the concentration given (expressed as a percentage of the activity measured in the absence of inhibitors). The results obtained for gossypol and gossypolone are given by way of comparison.

A further assay addresses MSK1 (Homo sapiens, UniProt O75582). The settings on record: read-out: Residual activity MSK1. As for the experimental part:
as §1, §2

The test system of another assay is p70 S6K. The settings on record: 10 μM compound; percentage of the activity measured in the absence of inhibitors. The method, then: as §1, §2
The next assay deals with DYRK1a (Homo sapiens, UniProt Q13627). The settings on record: read-out: Residual activity DYRK1a. The method, then:
as §1, §2

The target in a further assay is CSK (Homo sapiens, UniProt P41240). The settings on record: read-out: Residual activity CSK. The method, then: as §1, §2
Sequence of CSK (P41240 whole entry, species assumed): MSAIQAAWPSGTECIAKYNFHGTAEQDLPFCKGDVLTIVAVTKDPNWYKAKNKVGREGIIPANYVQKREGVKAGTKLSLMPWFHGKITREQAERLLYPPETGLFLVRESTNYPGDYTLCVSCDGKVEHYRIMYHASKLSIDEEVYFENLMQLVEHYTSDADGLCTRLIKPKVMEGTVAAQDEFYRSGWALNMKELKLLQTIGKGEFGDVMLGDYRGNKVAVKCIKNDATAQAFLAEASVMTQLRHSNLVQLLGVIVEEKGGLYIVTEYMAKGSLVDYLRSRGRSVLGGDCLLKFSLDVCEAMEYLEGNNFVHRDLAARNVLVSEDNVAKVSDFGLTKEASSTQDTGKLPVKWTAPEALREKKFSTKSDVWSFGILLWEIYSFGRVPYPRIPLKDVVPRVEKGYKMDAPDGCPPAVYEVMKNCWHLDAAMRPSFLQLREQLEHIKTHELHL
The target in a further assay is CK2 (Homo sapiens, UniProt P68400). The settings on record: read-out: Residual activity CK2. As for the experimental part:
as §1, §2

Another assay has as its system AMPK. The settings on record: 10 μM compound; percentage of the activity measured in the absence of inhibitors. As for the experimental part: as §1, §2
The next assay addresses GSK3b (Homo sapiens, UniProt P49841). The settings on record: read-out: Residual activity GSK3b. As for the experimental part:
as §1, §2

In another assay the target is NEK6 (Homo sapiens, UniProt Q9HC98). The settings on record: read-out: Residual activity NEK6. The method, then:
as §1, §2

A further assay deals with PKB?ph. The settings on record: 10 μM compound; percentage of the activity measured in the absence of inhibitors. The method, then: as §1, §2
The target of the next assay is PHK (Oryctolagus cuniculus, UniProt P00518). The settings on record: read-out: Residual activity PHK. As for the experimental part: as §1, §2
Another assay deals with JNK/SAPK1c (Homo sapiens, UniProt P45983). The settings on record: read-out: Residual activity JNK/SAPK1c. As for the experimental part: as §1, §2
In another assay the target is ROCK-II (Homo sapiens, UniProt O75116). The settings on record: read-out: Residual activity ROCK-II. The method, then:
as §1, §2

Another assay concerns the target MKK1 (Homo sapiens, UniProt Q02750). The settings on record: read-out: Residual activity MKK1. The method, then:
as §1, §2

Another assay concerns the target Lck (Homo sapiens, UniProt P06239). The settings on record: read-out: Residual activity Lck. The method, then:
as §1, §2

Another assay concerns the target T1, CHK1 (Homo sapiens, UniProt O14757).
T1 sequence (O14757 1-476): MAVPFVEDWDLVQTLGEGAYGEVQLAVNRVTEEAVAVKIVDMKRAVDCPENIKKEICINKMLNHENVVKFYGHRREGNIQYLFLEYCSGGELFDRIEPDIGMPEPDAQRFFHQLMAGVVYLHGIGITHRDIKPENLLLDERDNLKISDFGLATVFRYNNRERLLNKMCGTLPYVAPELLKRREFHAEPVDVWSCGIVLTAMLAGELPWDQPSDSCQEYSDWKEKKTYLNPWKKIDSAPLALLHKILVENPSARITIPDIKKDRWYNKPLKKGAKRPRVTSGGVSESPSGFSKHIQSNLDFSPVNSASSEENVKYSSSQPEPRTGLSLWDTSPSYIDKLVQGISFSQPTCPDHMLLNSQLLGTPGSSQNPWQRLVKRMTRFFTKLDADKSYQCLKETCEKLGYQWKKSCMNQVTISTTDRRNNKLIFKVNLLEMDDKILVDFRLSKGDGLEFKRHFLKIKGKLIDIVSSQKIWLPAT
The settings on record: read-out: Residual activity CHK1. The method, then:
as §1, §2

Another assay concerns CK1. The settings on record: 10 μM compound; percentage of the activity measured in the absence of inhibitors. As for the experimental part: as §1, §2
The next assay concerns the target MAPKAP-K2 (Homo sapiens, UniProt P49137). The settings on record: read-out: Residual activity MAPKAP-K2. The method, then:
as §1, §2

The target of another assay is SAPK2b/p38β2 (Homo sapiens, UniProt Q15759). The settings on record: read-out: Residual activity SAPK2b/p38β2. The method, then: as §1, §2
Sequence of SAPK2b/p38β2 (Q15759 whole entry): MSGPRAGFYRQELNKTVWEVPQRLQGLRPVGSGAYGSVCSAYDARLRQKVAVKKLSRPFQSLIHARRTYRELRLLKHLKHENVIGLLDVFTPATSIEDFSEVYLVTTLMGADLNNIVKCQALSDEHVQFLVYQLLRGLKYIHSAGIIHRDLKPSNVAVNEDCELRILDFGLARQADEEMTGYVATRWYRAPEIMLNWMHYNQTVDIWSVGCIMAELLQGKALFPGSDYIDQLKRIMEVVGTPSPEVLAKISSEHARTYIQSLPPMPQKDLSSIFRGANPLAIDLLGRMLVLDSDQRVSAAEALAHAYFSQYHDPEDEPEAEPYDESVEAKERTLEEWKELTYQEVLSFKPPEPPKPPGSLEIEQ
The next assay has as its target T2, PDK1 (Homo sapiens, UniProt O15530).
T2 sequence (O15530 1-556): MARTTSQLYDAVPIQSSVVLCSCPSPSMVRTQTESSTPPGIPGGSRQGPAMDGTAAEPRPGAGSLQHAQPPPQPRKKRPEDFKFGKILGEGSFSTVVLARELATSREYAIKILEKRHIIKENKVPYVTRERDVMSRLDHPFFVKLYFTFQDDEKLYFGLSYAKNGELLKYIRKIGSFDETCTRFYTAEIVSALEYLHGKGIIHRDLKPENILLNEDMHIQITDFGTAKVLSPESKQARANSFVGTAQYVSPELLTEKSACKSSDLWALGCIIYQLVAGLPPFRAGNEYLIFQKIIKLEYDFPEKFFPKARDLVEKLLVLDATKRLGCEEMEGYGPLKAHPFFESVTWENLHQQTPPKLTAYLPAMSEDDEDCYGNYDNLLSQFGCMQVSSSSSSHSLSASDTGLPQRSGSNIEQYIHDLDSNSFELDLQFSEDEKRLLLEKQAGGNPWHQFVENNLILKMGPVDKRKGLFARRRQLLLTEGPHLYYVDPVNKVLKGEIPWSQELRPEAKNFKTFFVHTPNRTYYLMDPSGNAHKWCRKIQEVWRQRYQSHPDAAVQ
The settings on record: read-out: Residual activity PDK1. As for the experimental part:
as §1, §2

For the next assay, the target named is PKA (Homo sapiens, UniProt P17612). The settings on record: read-out: Residual activity PKA. The method, then:
as §1, §2

The target of the next assay is CDK2/cyclin A (Homo sapiens, UniProt P24941). The settings on record: read-out: Residual activity CDK2/cyclin A. The method, then: as §1, §2
For the next assay, the target named is MAPKAP-K1a (Homo sapiens, UniProt Q15418). The settings on record: read-out: Residual activity MAPKAP-K1a. As for the experimental part: as §1, §2
[1] abbreviates: 10 μM compound, percentage of the activity measured in the absence of inhibitors.

Sequence of Lck (P06239 whole entry, species assumed): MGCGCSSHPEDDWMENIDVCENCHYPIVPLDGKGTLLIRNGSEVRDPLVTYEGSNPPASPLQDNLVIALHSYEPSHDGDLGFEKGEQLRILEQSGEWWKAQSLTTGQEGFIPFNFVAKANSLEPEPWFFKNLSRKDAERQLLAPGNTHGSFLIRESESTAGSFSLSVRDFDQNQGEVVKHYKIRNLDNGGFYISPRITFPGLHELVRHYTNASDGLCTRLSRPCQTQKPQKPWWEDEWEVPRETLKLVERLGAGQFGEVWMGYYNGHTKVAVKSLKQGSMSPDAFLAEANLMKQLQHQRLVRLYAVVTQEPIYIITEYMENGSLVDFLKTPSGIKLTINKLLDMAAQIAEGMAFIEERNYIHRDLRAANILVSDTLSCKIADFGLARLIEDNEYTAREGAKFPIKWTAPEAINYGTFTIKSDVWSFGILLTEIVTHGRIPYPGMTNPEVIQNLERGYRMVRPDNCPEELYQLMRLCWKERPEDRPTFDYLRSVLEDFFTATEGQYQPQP
Sequence of ROCK-II (O75116 whole entry, species assumed): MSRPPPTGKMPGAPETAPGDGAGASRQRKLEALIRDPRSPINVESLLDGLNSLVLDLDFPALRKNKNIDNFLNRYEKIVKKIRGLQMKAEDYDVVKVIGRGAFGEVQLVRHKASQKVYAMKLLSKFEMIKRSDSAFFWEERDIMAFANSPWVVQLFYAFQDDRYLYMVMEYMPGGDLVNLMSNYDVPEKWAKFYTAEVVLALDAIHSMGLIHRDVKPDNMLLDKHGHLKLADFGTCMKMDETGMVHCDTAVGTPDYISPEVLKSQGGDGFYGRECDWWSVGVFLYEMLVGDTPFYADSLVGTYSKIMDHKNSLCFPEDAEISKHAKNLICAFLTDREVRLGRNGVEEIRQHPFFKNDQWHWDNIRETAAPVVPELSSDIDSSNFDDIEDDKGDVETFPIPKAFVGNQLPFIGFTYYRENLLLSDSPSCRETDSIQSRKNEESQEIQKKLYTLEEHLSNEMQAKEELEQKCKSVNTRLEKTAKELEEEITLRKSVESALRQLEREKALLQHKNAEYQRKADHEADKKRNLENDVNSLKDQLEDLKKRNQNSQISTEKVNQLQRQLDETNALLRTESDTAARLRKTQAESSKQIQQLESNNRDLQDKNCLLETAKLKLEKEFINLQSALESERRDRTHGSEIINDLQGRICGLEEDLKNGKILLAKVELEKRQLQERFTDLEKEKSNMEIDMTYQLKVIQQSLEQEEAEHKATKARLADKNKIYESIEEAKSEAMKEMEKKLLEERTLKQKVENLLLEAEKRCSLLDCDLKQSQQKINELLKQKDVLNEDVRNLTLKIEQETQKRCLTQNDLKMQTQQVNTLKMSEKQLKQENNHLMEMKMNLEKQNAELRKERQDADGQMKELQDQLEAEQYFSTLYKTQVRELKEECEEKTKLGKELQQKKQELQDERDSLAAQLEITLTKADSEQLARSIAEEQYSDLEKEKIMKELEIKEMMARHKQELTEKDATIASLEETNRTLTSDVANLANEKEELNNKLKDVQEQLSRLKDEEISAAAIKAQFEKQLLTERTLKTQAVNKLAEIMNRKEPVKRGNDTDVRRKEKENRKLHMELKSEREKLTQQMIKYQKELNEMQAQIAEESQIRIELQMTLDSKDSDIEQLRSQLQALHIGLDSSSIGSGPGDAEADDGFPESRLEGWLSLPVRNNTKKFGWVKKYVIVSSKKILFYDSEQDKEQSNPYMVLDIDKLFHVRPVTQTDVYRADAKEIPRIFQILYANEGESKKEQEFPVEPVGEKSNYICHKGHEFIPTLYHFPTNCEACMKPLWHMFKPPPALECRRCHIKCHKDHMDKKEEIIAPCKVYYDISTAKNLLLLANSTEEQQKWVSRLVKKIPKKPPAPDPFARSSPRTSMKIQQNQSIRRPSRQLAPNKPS
Sequence of GSK3b (P49841 whole entry, species assumed): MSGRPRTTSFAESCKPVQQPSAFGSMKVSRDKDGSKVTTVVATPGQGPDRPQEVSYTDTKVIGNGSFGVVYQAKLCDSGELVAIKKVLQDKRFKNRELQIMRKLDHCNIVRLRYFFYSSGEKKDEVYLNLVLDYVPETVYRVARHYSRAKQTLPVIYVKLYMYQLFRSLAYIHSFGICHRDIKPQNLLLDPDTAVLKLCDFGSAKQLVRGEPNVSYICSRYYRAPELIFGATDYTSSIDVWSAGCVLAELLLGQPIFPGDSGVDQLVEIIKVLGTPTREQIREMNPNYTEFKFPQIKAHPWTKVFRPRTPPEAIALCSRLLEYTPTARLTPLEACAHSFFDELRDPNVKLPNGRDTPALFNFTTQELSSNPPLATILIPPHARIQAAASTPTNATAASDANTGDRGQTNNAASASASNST
Sequence of CK2 (P68400 whole entry): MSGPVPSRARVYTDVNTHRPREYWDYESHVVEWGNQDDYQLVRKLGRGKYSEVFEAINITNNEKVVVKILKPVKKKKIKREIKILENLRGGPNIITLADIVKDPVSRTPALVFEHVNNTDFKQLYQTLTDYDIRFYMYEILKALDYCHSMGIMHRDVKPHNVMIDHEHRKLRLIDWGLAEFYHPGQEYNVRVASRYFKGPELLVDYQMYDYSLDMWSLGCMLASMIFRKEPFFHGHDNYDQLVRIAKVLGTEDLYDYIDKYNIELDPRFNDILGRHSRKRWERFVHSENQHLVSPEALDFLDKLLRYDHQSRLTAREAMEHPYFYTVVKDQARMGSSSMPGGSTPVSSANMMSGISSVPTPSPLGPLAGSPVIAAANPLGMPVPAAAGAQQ
Sequence of MSK1 (O75582 whole entry, species assumed): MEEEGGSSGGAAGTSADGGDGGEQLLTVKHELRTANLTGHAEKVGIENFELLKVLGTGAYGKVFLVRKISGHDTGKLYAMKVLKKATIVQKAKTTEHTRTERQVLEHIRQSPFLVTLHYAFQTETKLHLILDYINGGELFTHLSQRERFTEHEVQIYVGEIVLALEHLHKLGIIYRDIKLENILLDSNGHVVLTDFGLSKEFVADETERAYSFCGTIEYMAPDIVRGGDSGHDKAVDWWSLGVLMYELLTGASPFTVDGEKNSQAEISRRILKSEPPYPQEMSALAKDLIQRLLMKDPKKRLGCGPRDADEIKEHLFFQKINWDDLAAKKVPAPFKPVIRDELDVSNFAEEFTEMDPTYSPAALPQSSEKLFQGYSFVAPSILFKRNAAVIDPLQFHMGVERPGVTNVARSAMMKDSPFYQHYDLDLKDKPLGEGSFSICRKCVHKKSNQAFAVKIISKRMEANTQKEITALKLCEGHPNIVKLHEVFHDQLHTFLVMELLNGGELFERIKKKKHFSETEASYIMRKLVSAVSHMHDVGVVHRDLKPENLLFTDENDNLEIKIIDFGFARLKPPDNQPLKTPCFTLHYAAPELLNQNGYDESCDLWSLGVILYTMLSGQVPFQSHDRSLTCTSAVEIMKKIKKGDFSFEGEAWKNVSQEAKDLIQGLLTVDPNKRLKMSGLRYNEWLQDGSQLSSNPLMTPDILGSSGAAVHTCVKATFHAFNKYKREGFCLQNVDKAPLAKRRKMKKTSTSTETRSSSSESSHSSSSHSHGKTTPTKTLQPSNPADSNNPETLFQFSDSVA
Sequence of MKK1 (Q02750 whole entry, species assumed): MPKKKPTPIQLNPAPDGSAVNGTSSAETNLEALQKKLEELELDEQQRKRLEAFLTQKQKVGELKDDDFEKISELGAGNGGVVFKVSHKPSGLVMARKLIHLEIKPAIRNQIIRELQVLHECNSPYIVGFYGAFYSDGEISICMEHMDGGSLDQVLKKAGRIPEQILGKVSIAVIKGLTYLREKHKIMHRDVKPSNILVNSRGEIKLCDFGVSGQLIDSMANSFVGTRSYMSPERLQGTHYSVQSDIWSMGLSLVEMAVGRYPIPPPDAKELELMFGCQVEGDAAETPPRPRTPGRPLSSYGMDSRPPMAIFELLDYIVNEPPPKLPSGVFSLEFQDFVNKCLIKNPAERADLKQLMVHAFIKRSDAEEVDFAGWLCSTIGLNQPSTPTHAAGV

Take `CC1=C(C2=C(C)C(=O)c3c(c(O)c(O)c(O)c3C(C)C)C2=O)C(=O)c2c(O)c(O)c(O)c(C(C)C)c2C1=O` [Compound (4), 6,7,8,6′,7′,8′-hexahydroxy-5,5′-diisopropyl-3,3′-dimethyl-[2.2′]binaphthalenyl-1,4,1′,4′-tetraone]: the remaining activity at 10 µM on PKCa is 85%; on MSK1, 69%; on DYRK1a it was 25%; at CSK it was 93%; on CK2, 80%; on GSK3b, 63%. Further, the remaining activity at 10 µM was 86% at NEK6; 47% at PHK; 105% at JNK/SAPK1c; 75% on ROCK-II; 59% on MKK1; 71% at Lck. In addition, the remaining activity at 10 µM was 127% on CHK1; 28% on MAPKAP-K2; 124% on SAPK2b/p38β2; 88% at PDK1; 69% at PKA; 113% on CDK2/cyclin A. Further, the remaining activity at 10 µM on MAPKAP-K1a was found to be 58%. Also, the “Residual activity p70 S6K” value with p70 S6K is 34%. The “Residual activity AMPK” value in the assay with AMPK was 61%. Further, the “Residual activity PKB?ph” value in the assay with PKB?ph was 39%. Further, in the assay on CK1, the “Residual activity CK1” value came to 88%.
Regarding `CC1=C(C2=C(C)C(=O)c3c(c(CSCCO)c(O)c(O)c3C(C)C)C2=O)C(=O)c2c(CSCCO)c(O)c(O)c(C(C)C)c2C1=O` [Compound (14), 6,7,6′,7′-tetrahydroxy-8,8′-bis-(2-hydroxy-ethylsulphanylmethyl)-5,5′-diisopropyl-3,3′-dimethyl-[2,2′]binaphthalenyl-1,4,1′,4′-tetraone], the remaining activity at 10 µM came to 86% at PKCa (setting [1]); 83% on MSK1 (setting [1]); 16% at DYRK1a (setting [1]); 60% at CSK (setting [1]); 85% on CK2 (setting [1]); 85% at GSK3b (setting [1]). Also, the remaining activity at 10 µM is 81% on NEK6 (setting [1]); 27% at PHK (setting [1]); 88% on JNK/SAPK1c (setting [1]); 73% at ROCK-II (setting [1]); 90% at MKK1 (setting [1]); 54% at Lck (setting [1]). Further, the remaining activity at 10 µM worked out at 47% on CHK1 (setting [1]); 36% at MAPKAP-K2 (setting [1]); 113% on SAPK2b/p38β2 (setting [1]); 65% on PDK1 (setting [1]); 59% on PKA (setting [1]); 111% on CDK2/cyclin A (setting [1]). The remaining activity at 10 µM on MAPKAP-K1a (setting [1]) was determined as 60%. For the same molecule, the “Residual activity p70 S6K” value with p70 S6K is on record as 52%. For the same molecule, in the assay with AMPK, the “Residual activity AMPK” value worked out at 70%. Further, the “Residual activity PKB?ph” value with PKB?ph came to 76%. The “Residual activity CK1” value with CK1 is 77%.
For the molecule `Cc1cc2c(C(C)C)c(O)c(O)c(C=O)c2c(O)c1-c1c(C)cc2c(C(C)C)c(O)c(O)c(C=O)c2c1O` [Gossypol, gossypol], the remaining activity at 10 µM at PKCa stood at 96%; on MSK1, 79%; at DYRK1a, 21%; at CSK it was 103%; at CK2, 80%; at GSK3b it was 47%. For the same molecule, the remaining activity at 10 µM at NEK6 was determined as 92%; on PHK, 23%; on JNK/SAPK1c it was 90%; on ROCK-II, 80%; at MKK1, 86%; at Lck, 76%. In addition, the remaining activity at 10 µM on CHK1 came out at 9%; on MAPKAP-K2, 56%; on SAPK2b/p38β2, 125%; at PDK1 it was 71%; on PKA it was 47%; at CDK2/cyclin A it was 97%. Also, the remaining activity at 10 µM at MAPKAP-K1a is 77%. Also, the “Residual activity p70 S6K” value in the assay on p70 S6K stood at 110%. Moreover, in the assay with AMPK, the “Residual activity AMPK” value is 72%. Moreover, in the assay on PKB?ph, the “Residual activity PKB?ph” value is 94%. Moreover, the “Residual activity CK1” value with CK1 is on record as 89%.
